Results from US9688651B2, “Geranyl geranyl acetone analogs and uses thereof” (NYKEN Holding B.V., priority 2012, dated 2017).
“Also recorded” adds a separate entry of the source.

How the values were obtained:
PARP = PARP cleavage in MCF-7 cells (Western blot); format: cell-based, human; set-up: key to Cell Death MCF-7 cancer cells PARP: 0 = no dead cells; + = P < 0.05; ++ = P < 0.01; +++ = P < 0.001; conditions: for PARP cleavage, indicative of pro-apoptotic caspase activation: MCF-7, 10 μM, 16 hours; for Cell Death MCF-7 cancer cells PARP: MCF-7 lysate, Western blot, 16-20 hours
Method: (§1) MCF-7 breast cancer cells were cultured in DMEM supplemented with 10% FCS. Test compounds were added to the medium in a final concentration of […] for 16-20 hours. Ratio death and living cells was determined by using trypan blue staining of death cells. The cell pellets were lysed in RIPA buffer and used for Western blot analysis.
(§2) Western-blot analysis was performed as described previously^3, 10. Equal amount of protein in SDS-PAGE sample buffer was sonicated before separation on 10% PAA-SDS gels. After transfer to nitrocellulose membranes (Stratagene, The Netherlands), membranes were incubated with primary antibodies against HSP25 (Stressgen, The Netherlands, SPA-801, 1:1000), HSP27 (Stressgen, SPA-800, 1:1000), HSP70 (Stressgen, SPA-810, 1:1000), GAPDH (Affinity Reagents, The Netherlands) or PARP (Santa Cruz, The Netherlands, sc-7150, 1:500). Horseradish peroxidase-conjugated anti-mouse or anti-rabbit (Santa-Cruz Biotechnology, The Netherlands) was used as secondary antibody. Signals were detected by the ECL-detection method (Amersham, The Netherlands) and quantified by densitometry using GeneTools software from Syngene (The Netherlands).
(§3) Since we observed that some compounds aggravate tachypacing-induced contractile dysfunction, we next investigated if these compounds can induce programmed cell death in a human breast cancer cell-line MCF-7. Hereto, MCF-7 cells were incubated for 16 hours with 10 μM of a test compound after which the number of death and living cells was determined. In total 28 compounds were tested for cell death. […] GGA was used as a control as well as non-treated MCF-7 cells. […] The findings indicate that GGA-like compounds which aggravate heart failure can induce programmed cell death in MCF-7 breast cancer cell-line.

HSP70 [1] = test: HSP70 protein boosting in HL-1 cardiomyocytes after mild heat shock (Western blot); format: cell-based, mouse; set-up: key to HSP boosting HL-1 cardiomyocytes Protein HSP70: 0 = no induction HSP levels; + = 2-10-fold induction; ++ = 10-30-fold induction; +++ = > 30-fold induction; conditions: mild heat shock 44°C 10 min, then compound 10 μM for 6 hours; Western blot
Method: HL-1 atrial myocytes, a cell line derived from adult mouse atria were obtained from Dr. William Claycomb (Louisiana State University, New Orleans, La., USA). The myocytes were maintained in Complete Claycomb Medium (JRH, UK) supplemented with 100 μM norepinephrine stock (consisting of 10 mM norepinephrine (Sigma, The Netherlands) dissolved in 0.3 mM L-ascorbic acid (Sigma)), 4 mM L-glutamine (Gibco, The Netherlands) and 10% FBS (Sigma). The myocytes were cultured in flasks coated with 0.02% gelatin (Sigma), in a 5% CO2 atmosphere at 37° C.
HL-1 cardiomyocytes were subjected to a mild heat shock of 44° C. for 10 minutes. After a recovery of 10 minutes (37 degrees 5% CO2), compounds were added in a final concentration of 10 μM (dissolved in DMSO, final concentration 0.1%). To control myocytes, 0.1% DMSO was added. After six hours the cells were lysed in RIPA buffer and used for Western blotting as described previously.^3, 10
as §2
Compounds were also screened for HSP70 boosting effects. Hereto, HL-1 cardiomyocytes were first subjected to a mild heat shock which activates the Heat Shock Factor. After the mild heat shock, compound (10 μM) was added to the medium of HL-1 cardiomyocytes for 6 hours, followed by determination of the HSP70 amount.

[2] = tested on: MCF-7 breast cancer cells; test: MCF-7 cell death, ratio death/living cells (trypan blue); format: cell-based, human; set-up: key to Cell Death MCF-7 cancer cells Death/living 100 μM: 0 = no dead cells; + = P < 0.05; ++ = P < 0.01; +++ = P < 0.001; conditions: for cell death in MCF-7: 10 μM, 16 hours; for Cell Death MCF-7 cancer cells Death/living 100 μM: 16-20 hours, trypan blue
Method: MCF-7 breast cancer cells were cultured in DMEM supplemented with 10% FCS. […] Ratio death and living cells was determined by using trypan blue staining of death cells. The cell pellets were lysed in RIPA buffer and used for Western blot analysis.
as §3, with “Hereto, MCF-7 cells were incubated for 16 hours with 10 μM of a test compound after which the number of death and living cells was determined.” left out

HSP27 = HSP27 Western blot in MCF-7 cells; format: cell-based, human; set-up: key: + = P < 0.05; ++ = P < 0.01; +++ = P < 0.001; conditions: MCF-7 lysate, 16-20 hours
Method: as §1, §2

HSP70 [3] = test: HSP70 Western blot in MCF-7 cells; format: cell-based, human; set-up: key: + = P < 0.05; ++ = P < 0.01; +++ = P < 0.001; conditions: MCF-7 lysate, 16-20 hours
Method: as §1, §2

| SMILES | PARP cleavage, indicative of pro-apoptotic caspase activation (PARP) | Cell Death MCF-7 cancer cells PARP (PARP) | HSP boosting HL-1 cardiomyocytes Protein HSP70 (HSP70 [1]) | cell death in MCF-7 [2] | Cell Death MCF-7 cancer cells Death/living 100 μM [2] | Cell Death MCF-7 cancer cells HSP 27 (HSP27) | Cell Death MCF-7 cancer cells HSP 70 (HSP70 [3]) |
| --- | --- | --- | --- | --- | --- | --- | --- |
| CC(C)=CCC/C(C)=C/CCc1cc(O)nn1Cc1ccccc1 [Compound 65] | induced PARP cleavage | ++ (++ = P < 0.01) | 0 | significant increase in cell death; also recorded: induce cell death | ++ (++ = P < 0.01) | +++ (+++ = P < 0.001) | ++ (++ = P < 0.01) |
| CC(C)=CCC/C(C)=C/CNC(=O)CS(C)(=O)=O [Compound 56] |  | 0 | 0 |  | 0 | 0 | 0 |
| CCOC(=O)CC(=O)NC/C=C(\C)CCC=C(C)C [Compound 98] |  | 0 | 0 |  | 0 | ++ (++ = P < 0.01) | 0 |
| CCCC(=O)C(CC)C(=O)N(C/C=C(\C)CCC=C(C)C)C(=O)CCC (centres unmarked) [Compound 128] |  |  | 0 |  |  |  |  |
| CCCCCC(C(=O)CC/C=C(\C)CCC=C(C)C)C(=O)OCC (centres unmarked) [Compound 24] |  |  | 0 |  |  |  |  |
| CCOC(=O)C(C/C=C(\C)CCC=C(C)C)C(C)=O (centres unmarked) [Compound 81] |  |  | 0 |  |  |  |  |
| CC(C)=CCC/C(C)=C/CCc1cc(C)nn1-c1ccc(F)cc1 [Compound 39] |  | 0 | 0 |  | 0 | + (+ = P < 0.05) | 0 |
| CC(C)=CCC/C(C)=C/Cc1c(O)c2ccccc2oc1=O [Compound 66] | induced PARP cleavage | + (+ = P < 0.05) | 0 |  | 0 | + (+ = P < 0.05) | ++ (++ = P < 0.01) |
| CC(C)=CCC/C(C)=C/CNC(=O)c1ccccc1O [Compound 101] | induced PARP cleavage | ++ (++ = P < 0.01) | 0 | significant increase in cell death; also recorded: induce cell death | ++ (++ = P < 0.01) | 0 |  |
| CC(C)=CCC/C(C)=C/CCc1cc(C)n(C)n1 [Compound 33] |  |  | + (+ = 2-10-fold induction) |  |  |  |  |
| CC(C)=CCC/C(C)=C/CCc1cc(O)nn1C [Compound 64] |  |  | 0 |  |  |  |  |
| CCOC(=O)C(=Cc1ccccc1)C(=O)CCC=C(C)CCC=C(C)C (mixture of isomers) [Compound 84] |  |  | + (+ = 2-10-fold induction) |  |  |  |  |
| CC(=O)NC/C=C(\C)CCC=C(C)C [Compound 43] |  |  | 0 |  |  |  |  |
| CCOC(=O)C(C(=O)CC/C=C(\C)CCC=C(C)C)C(C)C(=O)O (centres unmarked) [Compound 82] |  |  | 0 |  |  |  |  |
| CC(C)=CCC/C(C)=C/CCc1cc(C)n(CCO)n1 [Compound 35] |  |  | 0 |  |  |  |  |
| CCOC(=O)C(=O)NC/C=C(\C)CCC=C(C)C [Compound 97] |  |  | 0 |  |  |  |  |
| CCOC(=O)CC(=O)CC/C=C(\C)CCC=C(C)C [Compound 21, (E)-Ethyl 7,11-dimethyl-3-oxododeca-6,10-dienoate] |  |  | 0 |  |  |  |  |
| CCOC(=O)C(C)C(=O)CC/C=C(\C)CCC=C(C)C (centres unmarked) [Compound 22] |  |  | 0 |  |  |  |  |
| CCCC(=O)NC/C=C(\C)CCC=C(C)C [Compound 91] |  |  | + (+ = 2-10-fold induction) |  |  |  |  |
| CC(C)=CCC/C(C)=C/CCc1cc(C)nn1-c1ccc(C#N)cc1 [Compound 41] | induced PARP cleavage | + (+ = P < 0.05) | 0 | significant increase in cell death; also recorded: induce cell death | + (+ = P < 0.05) | + (+ = P < 0.05) | 0 |
| CC(C)=CCC/C(C)=C/CCc1cc(C)n(CCC#N)n1 [Compound 34] |  |  | 0 |  |  |  |  |
| CCCC(C(=O)CC/C=C(\C)CCC=C(C)C)C(=O)OCC (centres unmarked) [Compound 70] |  | 0 | 0 |  | 0 | +++ (+++ = P < 0.001) | ++ (++ = P < 0.01) |
| CC(C)=CCC/C(C)=C/CNS(=O)(=O)c1ccc(C)cc1 [Compound 53] |  |  | + (+ = 2-10-fold induction) |  |  |  |  |
| CCNC(=O)NC/C=C(\C)CCC=C(C)C [Compound 44] |  |  | 0 |  |  |  |  |
| CCC(=O)N(C/C=C(\C)CCC=C(C)C)C(=O)CC [Compound 103] |  | 0 | 0 |  | 0 | 0 | 0 |
| CC(C)=CCC/C(C)=C/CNC(=O)Nc1cccc(F)c1 [Compound 45] | induced PARP cleavage | ++ (++ = P < 0.01) | 0 | significant increase in cell death; also recorded: induce cell death | ++ (++ = P < 0.01) | 0 |  |
| CC(C)=CCC/C(C)=C/CCc1cc(C)nn1-c1ccccc1F [Compound 40] |  |  | 0 |  |  |  |  |
| CCOC(=O)CC(C(=O)CC/C=C(\C)CCC=C(C)C)C(=O)OCC (centres unmarked) [Compound 89] |  | 0 | + (+ = 2-10-fold induction) |  | 0 | 0 | 0 |
| CCCC(=O)N(C/C=C(\C)CCC=C(C)C)C(=O)CCC [Compound 127] |  | 0 | 0 |  | 0 |  | 0 |
| CCOC(=O)C(CC(=O)O)C(=O)CC/C=C(\C)CCC=C(C)C (centres unmarked) [Compound 78] | induced PARP cleavage | + (+ = P < 0.05) | 0 |  | 0 | ++ (++ = P < 0.01) | 0 |
